Results from US20100285959A1, “HERBICIDAL MIXTURES” (priority 2006, published 2010).

How the values were obtained:
common ragweed (AMBEL) = assay: Test 25 field trial, postemergence, growth as percent of control; type: in vivo, Ambrosia artemisiifolia
From the text: (§1) Corn seeds (hybrid ‘Pioneer 31G96 RR’) were planted in mid spring season, 3.8 cm deep in a clay loam soil having 2% organic matter and a pH of 6.6. Plots were 6.1 m long by 3.0 m wide with rows spaced 76 cm apart. Seeds were spaced 15 cm apart within the rows. The field was managed using conventional tillage practices. […] Giant ragweed and Pennsylvania smartweed could only be evaluated 14 days after application. […] Results are the means of the three replicates. This growth inhibition data was converted to results in the form of “plant growth as a percent of control plant growth” using the calculation “100 minus growth inhibition”.
(§2) When this form of Colby's Equation is used, if the observed effects on weeds are less than the expected values, the mixture is synergistic.

giant ragweed (AMBTR) = assay: as above; type: in vivo, Ambrosia trifida; conditions: 14 DAA
From the text: as §1, §2

corn (ZEAMD) = assay: as above; type: in vivo, Zea mays ssp. indentata; conditions: hybrid Pioneer 31G96 RR, Zea mays ssp. indentata (corn), in vivo
From the text: as §1, §2

jimsonweed (DATST) = assay: Test 26 field trial, postemergence; type: in vivo, Datura stramonium; conditions: 28 DAA
From the text: (§3) Corn seeds (hybrid ‘Pioneer 31G96’) were planted in mid spring season, 3.8 cm deep in a silt loam soil having 2% organic matter and a pH of 6.6. Plots were 6.1 m long by 3.0 m wide with rows spaced 76 cm apart. Seeds were spaced 15 cm apart within the rows. The field was managed using conventional tillage practices. […] All treatments also included a surfactant. […] Some of the weed species could not be evaluated at every timing. […] Results are the means of the three replicates.

kochia (KCHSC) = assay: Test 24 growth chamber, postemergence; type: in vivo, Kochia scoparia; conditions: 17 DAA
Experimental: (§4) Plants were treated postemergence at the 2-4 leaf growth stage, and each treatment was replicated three times. […] Plants were watered as needed. […] Results for barley and wheat are the means across varieties of the three replicates, and results for the weeds are the means of the three replicates.

giant foxtail (SETFA) [1] = assay: Test 25 field trial, postemergence, growth as percent of control; type: in vivo, Setaria faberi
From the text: as §1, §2

[2] = tested on: ivyleaf morningglory (IPOHE); assay: Test 28 greenhouse, postemergence; type: in vivo, Ipomoea hederacea; conditions: 26 DAA
Experimental: (§5) A greenhouse test was conducted to evaluate the effects on the plant species corn (ZEAMD, Zea mays ssp. indentata), sorghum (SORVU, Sorghum vulgare L.), dry-seeded rice (ORYSA, Oryza sativa L.), wheat (TRZAW, Triticum aestivum L.), ivyleaf morningglory (IPOHE, Ipomoea hederacea (L.) JACQ.), and barnyardgrass (ECHCG, Echinochloa crus-galli (L.) P. BEAUV.), of mixtures of Compound 2 with isoxadifen-ethyl. Corn, sorghum, rice, wheat, ivyleaf morningglory and barnyardgrass seeds were planted in RediEarth, a commercial potting medium. […] Corn plants were treated postemergence at the V2 growth stage, and sorghum, rice, wheat, ivyleaf morningglory, and barnyardgrass plants were treated postemergence at the 3-leaf stage. […] Each treatment was replicated three times. […] Plants were watered as needed.

giant foxtail (SETFA) [3] = assay: Test 26 field trial, postemergence; type: in vivo, Setaria faberi; design: scale not given here
From the text: as §3

barnyardgrass (ECHCG) = assay: Test 28 greenhouse, postemergence; type: in vivo, Echinochloa crus-galli; conditions: 26 DAA
Experimental: as §5

velvetleaf (ABUTH) = assay: Test 15 greenhouse, postemergence; conditions: 12 DAA
[4] = tested on: common lambsquarters (CHEAL); assay: Test 24 growth chamber, postemergence; type: in vivo, Chenopodium album; conditions: 17 DAA
Experimental: as §4

common chickweed (STEME) = assay: Test 24 growth chamber, postemergence; type: in vivo, Stellaria media; conditions: 17 DAA
Experimental: as §4

[5] = tested on: common lambsquarters (CHEAL); assay: Test 4 field trial, postemergence; type: in vivo, Chenopodium album; conditions: 14 DAA
flint corn (ZEAMI) = assay: Test 11 field trial, preemergence; type: in vivo, Zea mays L. ssp. indurata; design: scale not given here; conditions: atrazine 1500 or metolachlor 2500 g a.i./ha alone
From the text: Corn seeds (hybrid ‘Pioneer 3041’) were planted in mid spring season, 5 cm deep in a clay soil having 2.6% organic matter and a pH of 5.6. Plots were 8 m long by 1.5 m wide with rows spaced 80 cm apart. Seeds were spaced 15 cm apart within the rows. The field was managed using conventional tillage practices. […] Treatments consisted of Compound 2 or
Goosegrass was not evaluated 16 or 91 days after application.

SMILES: COC(=O)c1nc(C2CC2)nc(N)c1Cl [Compound 2, methyl 6-amino-5-chloro-2-cyclopropyl-4-pyrimidinecarboxylate]
- AMBEL Obs (percent of control) (common ragweed (AMBEL); Cpd 2 15 g a.i./ha, 14 DAA): 20%
- AMBEL Obs (percent of control) (common ragweed (AMBEL); Cpd 2 15 g a.i./ha, 28 DAA): 16%
- AMBEL Obs (percent of control) (common ragweed (AMBEL); Cpd 2 15 g a.i./ha, 56 DAA): 0%
- AMBEL Obs (percent of control) (common ragweed (AMBEL); Cpd 2 30 g a.i./ha, 14 DAA): 22%
- AMBEL Obs (percent of control) (common ragweed (AMBEL); Cpd 2 30 g a.i./ha, 28 DAA): 12%
- AMBEL Obs (percent of control) (common ragweed (AMBEL); Cpd 2 30 g a.i./ha, 56 DAA): 0%
- AMBEL Obs (percent of control) (common ragweed (AMBEL); Cpd 2 45 g a.i./ha, 14 DAA): 12%
- AMBEL Obs (percent of control) (common ragweed (AMBEL); Cpd 2 45 g a.i./ha, 28 DAA): 8%
- AMBEL Obs (percent of control) (common ragweed (AMBEL); Cpd 2 45 g a.i./ha, 56 DAA): 0%
- AMBTR Obs (percent of control) (giant ragweed (AMBTR); Cpd 2 30 g a.i./ha): 5%
- AMBTR Obs (percent of control) (giant ragweed (AMBTR); Cpd 2 45 g a.i./ha): 0%
- ZEAMD Obs (percent of control) (corn (ZEAMD); 14 days after application): 100%
- ZEAMD Obs (percent of control) (corn (ZEAMD); 56 days after application): 100%
- DATST Obs (jimsonweed (DATST); 30 g a.i./ha): 100
- DATST Obs (jimsonweed (DATST); 45 g a.i./ha): 100
- DATST Obs (jimsonweed (DATST); 60 g a.i./ha): 100
- KCHSC Obs (scale 0 to 100) (kochia (KCHSC); Cpd 2 4 g a.i./ha): 65
- KCHSC Obs (scale 0 to 100) (kochia (KCHSC); Cpd 2 8 g a.i./ha): 77
- KCHSC Obs (scale 0 to 100) (kochia (KCHSC); Cpd 2 16 g a.i./ha): 88
- SETFA Obs (percent of control) (giant foxtail (SETFA) [1]; Cpd 2 15 g a.i./ha, 14 DAA): 93%
- SETFA Obs (percent of control) (giant foxtail (SETFA) [1]; Cpd 2 15 g a.i./ha, 28 DAA): 98%
- SETFA Obs (percent of control) (giant foxtail (SETFA) [1]; Cpd 2 15 g a.i./ha, 56 DAA): 100%
- SETFA Obs (percent of control) (giant foxtail (SETFA) [1]; Cpd 2 30 g a.i./ha, 14 DAA): 85%
- SETFA Obs (percent of control) (giant foxtail (SETFA) [1]; Cpd 2 30 g a.i./ha, 28 DAA): 88%
- SETFA Obs (percent of control) (giant foxtail (SETFA) [1]; Cpd 2 30 g a.i./ha, 56 DAA): 80%
- SETFA Obs (percent of control) (giant foxtail (SETFA) [1]; Cpd 2 45 g a.i./ha, 14 DAA): 73%
- SETFA Obs (percent of control) (giant foxtail (SETFA) [1]; Cpd 2 45 g a.i./ha, 28 DAA): 80%
- SETFA Obs (percent of control) (giant foxtail (SETFA) [1]; Cpd 2 45 g a.i./ha, 56 DAA): 83%
- IPOHE Obs ([2]; Cpd 2 32 g a.i./ha): 100
- IPOHE Obs ([2]; Cpd 2 64 g a.i./ha): 100
- SETFA Obs (giant foxtail (SETFA) [3]; 28 DAA, 30 g a.i./ha): 98
- SETFA Obs (giant foxtail (SETFA) [3]; 28 DAA, 45 g a.i./ha): 97
- SETFA Obs (giant foxtail (SETFA) [3]; 28 DAA, 60 g a.i./ha): 99
- SETFA Obs (giant foxtail (SETFA) [3]; 56 DAA, 30 g a.i./ha): 50
- SETFA Obs (giant foxtail (SETFA) [3]; 56 DAA, 45 g a.i./ha): 73
- SETFA Obs (giant foxtail (SETFA) [3]; 56 DAA, 60 g a.i./ha): 70
- ECHCG Obs (barnyardgrass (ECHCG); Cpd 2 32 g a.i./ha): 83
- ECHCG Obs (barnyardgrass (ECHCG); Cpd 2 64 g a.i./ha): 87
- Obs response, scale 0 to 100 (velvetleaf (ABUTH); 15 g a.i./ha): 31
- Obs response, scale 0 to 100 (velvetleaf (ABUTH); 30 g a.i./ha): 38
- Obs response, scale 0 to 100 (velvetleaf (ABUTH); 45 g a.i./ha): 61
- CHEAL Obs (scale 0 to 100) ([4]; Cpd 2 4 g a.i./ha): 45
- CHEAL Obs (scale 0 to 100) ([4]; Cpd 2 8 g a.i./ha): 60
- CHEAL Obs (scale 0 to 100) ([4]; Cpd 2 16 g a.i./ha): 73
- STEME Obs (scale 0 to 100) (common chickweed (STEME); Cpd 2 4 g a.i./ha): 47
- STEME Obs (scale 0 to 100) (common chickweed (STEME); Cpd 2 8 g a.i./ha): 63
- STEME Obs (scale 0 to 100) (common chickweed (STEME); Cpd 2 16 g a.i./ha): 67
- CHEAL Obs ([5]; Cpd 2 30 g a.i./ha alone or with clodinafop 56 or fenoxaprop 90): 83
- CHEAL Obs ([5]; Cpd 2 60 g a.i./ha alone or with clodinafop 56 or fenoxaprop 90): 92

SMILES: CCNc1nc(Cl)nc(NC(C)C)n1 [Atrazine, atrazine, reference compound]
- ZEAMI Obs (flint corn (ZEAMI); 16 DAA): 0
- ZEAMI Obs (flint corn (ZEAMI); 30 DAA): 0
- ZEAMI Obs (flint corn (ZEAMI); 44 DAA): 0
- ZEAMI Obs (flint corn (ZEAMI); 62 DAA): 0
- ZEAMI Obs (flint corn (ZEAMI); 91 DAA): 0
